Assay results: patent US12576103B2 (priority 2020, dated 2026)
“Also recorded” adds a separate entry of the source.

Assays:
[1] = tested on: ciliary motility; conditions: cited from earlier work
[2] = tested on: VERO cells; assay: Non-virus related cytotoxicity in VERO cells by light microscopy; format: cell-based; conditions: at the inhibiting concentrations (LMWH 125 μM, N-acetylcysteine 25 mM)
Description: For experiments in which infectivity was being tested, either VERO cells in media or SARS-COV-2 viral particles were incubated with potential inhibitors for one hour. Then viral particles were added to VERO cells and incubation continued for up to seven days. Cytotoxicity and viral-induced cytopathological effects were examined by light microscopy.
In order to test if AT-H201 had antiviral activity against SARS-COV-2 the standard VERO cells assay was performed. Test compounds were incubated either with the virus, to simulate antibody-like surface binding, or with the cells, to simulate either cell surface changes or to act intracellularly. Serial dilutions were conducted and the cytopathic effect (CPE) was observed by microscopy. Non-virus related cytotoxicity, if present was also noted.

[3] = tested on: SARS-COV-2; assay: microbe, parasite or virus in culture; format: cell-based; conditions: for SARS-CoV-2 infectivity of VERO cells: at concentrations which were not cytotoxic
[4] = tested on: virus that contain PBSC sequences; conditions: in vitro; cited from earlier work
[5] = Nebulized heparin in patients with pulmonary infection or lung injury (Example 6); format: in vivo
From the text: Nebulized heparin also affects various physiologic parameters and other outcomes, in particular during pulmonary infection and inhalation trauma.
Reduction of pulmonary coagulopathy at dosages ≥400,000 U/day heparin is observed.
A single dosage of nebulized heparin prior to cardiopulmonary bypass surgery decreases atelectasis and improves CO2 elimination directly after the operation. Nebulized heparin increases the number of ventilator-free days following administration.

[6] = Nebulized anticoagulants in preclinical models for lung injury; format: in vivo
From the text: Nebulized anticoagulants attenuate pulmonary coagulopathy in preclinical studies using various models for lung injury. Effects on inflammation are less consistent.

[7] = compared with controls
From the text: Inhalation injury is a major cause of morbidity and mortality in patients with burns. Presence of airways injury adds to the need of fluid supplementation, increases risk of pulmonary complications. Due to many mechanisms involved in pathophysiology the treatment is complex. Among them the formation of fibrin casts inside airways constitutes a prominent element. The material residing in tracheobronchial tree causes ventilation-perfusion mismatch, complicates mechanical ventilation, provides a medium for bacterial growth. Inhaled anticoagulation regimens employing heparin in management of inhalation injury are tested. Simultaneously safety, especially in connection with possible bleeding risk, is measured.
Data are collected in patients receiving nebulized heparin and in historical controls. Data is analyzed separately with 1) all subjects included and 2) with subjects who died/were discharged on the ventilator excluded.

[8] = Phase 1 clinical study of nebulized heparin in volunteers (Example 4)
Description: This example describes the safety and efficacy of nebulized heparin and NAC in normal subjects. A Phase 1 clinical study of nebulized heparin is conducted to investigate the safety of increasing doses of a well-defined lower respiratory tract (LRT) dose of inhaled heparin with regard to pulmonary function and coagulation. Ten volunteers inhale heparin from Sidestream jet nebulizers loaded with 100,000, 200,000, 300,000 or 400,000 International Units (ID) of heparin.

[9] = aqueous solution at physiologic pH; cited from earlier work
[10] = nebulized, presence of pulmonary infection or lung injury

For “2-alkyl-4-hydroxyquinolines [pyo compound]”, the “concentration producing ciliostasis / inhibiting ciliary motility” value [1] is listed as 50 µg/mL.

In the case of enoxaparin [LMWH], the Cytotoxicity [2] is reported as “not seen”, the “inhibition of SARS-COV-2 infectivity” value ([3]; at 125 μM, SARS-COV-2 incubated with compound before VERO cell exposure) is reported as “complete inhibition” and the “inhibition of viral cytopathic effects / SARS-COV-2 infectivity” value ([3]; at nanomolar concentrations, incubated with the virus or with the cells) is reported as “completely inhibiting; also recorded: nanomolar efficacy”. The inhibition of infectivity ([3]; either incubated with the virus or incubated with the cells) was “effective”.

In the case of rhamnolipid, the “effect of limited exposure of tracheal explants” value ([1]; associated with altered ciliary membranes) is listed as “ciliostasis”.

For heparin, the “infectivity of virus that contain PBSC sequences” value [4] is given as “blocks infectivity”, the bleeding incidences ([5]; at dosages ≥100,000 U) is given as “without affecting” and the “dosages at which reduction of pulmonary coagulopathy is observed” value ([5]; nebulized) is given as ≥ 400,000 U/day. For the same compound, the “dosages at which systemic coagulation is affected” value ([5]; nebulized) was ≥ 100,000 U, the mortality ([5]; nebulized) was “does not increase” and the “number of ventilator-free days” value ([5]; nebulized) was “increases”. For the same compound, the “physiological parameters, such as arterial oxygenation or pulmonary compliance” value ([5]; nebulized) was “does not affect”, the systemic bleeding ([5]; nebulized) was “does not cause; also recorded: does not result in differences” and the systemic coagulation ([5]; nebulized) was “affects”. The “anticoagulant effect in the lungs” value [5, 10] was “has an anticoagulant effect”, the pulmonary inflammation [5, 10] was “inhibits” and the atelectasis ([5]; single nebulized dosage prior to cardiopulmonary bypass surgery) was “decreases”. For the same compound, the CO2 elimination ([5]; single nebulized dosage prior to cardiopulmonary bypass surgery, directly after the operation) was “improves”, the systemic coagulation [6] was “reduce” and the 28-day mortality [7] was “no differences”. For the same compound, the hospitalization length [7] was “no differences”, the “lung injury score during the first 7 days post injury” value [7] was “no differences” and the ventilator-associated pneumonia rate [7] was “no differences”. For the same compound, the “SARS-CoV-2 infectivity of VERO cells” value [3] was “inhibited”, the “Peak anti-Xa activity” value ([8]; 6 h after inhalation of 400,000 ID heparin) was 0.113 ID/mL and the APTT maximum ([8]; 6 h after inhalation of 400,000 ID heparin (p=0.05)) was 1.03. The “anti-Xa compared to baseline values” ([8]; after 200,000, 300,000, and 400,000 ID heparin) was “increases”, the safety of inhalation ([8]; delivery of 32,000 IU to the lower respiratory tract) was “can safely be inhaled” and the “area under the curve of the anti-Xa activity” value ([8]; inhaled, 100,000-400,000 IU) was “increase with increasing doses”. The pulmonary function ([8]; inhaled, 100,000-400,000 IU loaded in nebulizer) was “did not affect”.

Compound `CCN(CCO)CCCC(C)Nc1ccnc2cc(Cl)ccc12` (centres unmarked) [Hydroxychloroquine, hydroxychloroquine] has an inhibition at 16 µM ([3]; Severe acute respiratory syndrome coronavirus 2, Vero, at 16 μM, incubation with cells, read-out: Inhibition of Virus Infection) of 100%.

In the case of `CCN(CC)/[N+]([O-])=N/O.CCNCC` [diethylamine/NO], the “rate of NO release” value [9] is listed as less than 3 min.

In the case of danaparoid, the systemic coagulation [6] is reported as “reduce”.

For `NCCN(CCN)/[N+]([O-])=N/O` [diethylenetriamine/NO], the “rate of NO release” value [9] is given as “approximately 20 hours”.

In the case of `CC(=O)N[C@@H](CS)C(=O)O` [NAC, N-acetylcysteine], the Cytotoxicity [2] is reported as “not seen”, the inhibition at 25000 µM ([3]; Severe acute respiratory syndrome coronavirus 2, Vero, at 25 mM, incubation with cells, read-out: Inhibition of Virus Infection) is reported as 100% and the inhibiting viral entry ([3]; at 25 mM) is reported as “effective”. For the same compound, the inhibition of infectivity ([3]; at 25 mM, incubated with cells) was “completely inhibit”, the “SARS-CoV-2 infectivity of VERO cells” value [3] was “inhibited” and the inhibition of infectivity ([3]; incubated with SARS-COV-2 (virus)) was “did not inhibit”.
